Assay results reported in US6365215B1, “Oral sensory perception-affecting compositions containing dimethyl sulfoxide, complexes thereof and salts thereof” (International Flavors & Fragrances Inc., priority 2000, dated 2002).

Tests used:
[1] = Comparison of perceived cooling: second compound plus dimethyl sulfoxide vs. second compound alone (Table I); assay type: in vivo; conditions: scale 0-10
From the text: is admixed with such “second compound(s),” the resulting mixture as stated, supra, has a highly intensified oral sensory perception effect, for example, a “highly intensified cooling effect” or a “highly intensified hot, burning effect.” Such effects are highly desirable in the use of certain oral care products such as mouthwashes, toothpastes and the like as set forth, supra. Thus, the following Table I sets forth a comparison of a “control” which is a “second compound” taken alone vs. the mixture of dimethyl sulfoxide with the said “second compound”: […]

[2] = Perceived cooling in screening base: silica toothpaste base with 0.4% saccharin (Table II); assay type: in vivo
From the text: The following Table II sets forth the effect in a screening base, in this case: silica toothpaste base containing 0.4% saccharin of various “second compounds” in admixture with dimethyl sulfoxide, as follows: […]

[3] = second compound 30 ppm + DMSO 0.1 ppm
[4] = second compound 30 ppm + DMSO 100 ppm
[5] = second compound alone 30 ppm (control for DMSO 0.1 ppm line)
[6] = second compound alone 30 ppm (control for DMSO 100 ppm line)
[7] = scaled 1-10, 2nd compound 30 ppm + DMSO 0.1 ppm
[8] = scaled 1-10, 2nd compound 30 ppm + DMSO 1 ppm
[9] = scaled 1-10, 2nd compound alone 30 ppm (line of DMSO 0.1 ppm)
[10] = scaled 1-10, 2nd compound alone 30 ppm (line of DMSO 1 ppm)

| SMILES | Effect of Mixture vs. Control, perceived cooling: mixture [1, 3] | Effect of Mixture vs. Control, perceived cooling: mixture [1, 4] | Effect of Mixture vs. Control, perceived cooling: control [1, 5] | Effect of Mixture vs. Control, perceived cooling: control [1, 6] | Observed Effect Scaled at 1-10 vs. 2nd Compound Alone, perceived cooling: with DMSO [2, 7] | Observed Effect Scaled at 1-10 vs. 2nd Compound Alone, perceived cooling: with DMSO [2, 8] | Observed Effect Scaled at 1-10 vs. 2nd Compound Alone, perceived cooling: 2nd compound alone [2, 9] | Observed Effect Scaled at 1-10 vs. 2nd Compound Alone, perceived cooling: 2nd compound alone [2, 10] | also measured |
| --- | --- | --- | --- | --- | --- | --- | --- | --- | --- |
| CC1CCC(C(C)C)C(OC(=O)CCC(=O)O)C1 (centres unmarked) [Monomenthyl succinate, menthyl succinate] | – | – | – | – | – | – | – | – | Effect of Mixture vs. Control, perceived cooling: mixture ([1]; second compound 100 ppm + DMSO 0.1 ppm): 9.1; Effect of Mixture vs. Control, perceived cooling: mixture ([1]; second compound 100 ppm + DMSO 100 ppm): 8.7; Effect of Mixture vs. Control, perceived cooling: control ([1]; second compound alone 100 ppm (control for DMSO 0.1 ppm line)): 3.8; Effect of Mixture vs. Control, perceived cooling: control ([1]; second compound alone 100 ppm (control for DMSO 100 ppm line)): 2.5; Observed Effect Scaled at 1-10 vs. 2nd Compound Alone, perceived cooling: with DMSO ([2]; scaled 1-10, 2nd compound 100 ppm + DMSO 0.1 ppm): 9.0; Observed Effect Scaled at 1-10 vs. 2nd Compound Alone, perceived cooling: with DMSO ([2]; scaled 1-10, 2nd compound 100 ppm + DMSO 1 ppm): 9.2; Observed Effect Scaled at 1-10 vs. 2nd Compound Alone, perceived cooling: 2nd compound alone ([2]; scaled 1-10, 2nd compound alone 100 ppm (line of DMSO 0.1 ppm)): 3.5; Observed Effect Scaled at 1-10 vs. 2nd Compound Alone, perceived cooling: 2nd compound alone ([2]; scaled 1-10, 2nd compound alone 100 ppm (line of DMSO 1 ppm)): 3.7 |
| CC1CCC(C(C)C)C(O)C1 (centres unmarked) [Menthol, menthol] | – | – | – | – | – | – | – | – | Effect of Mixture vs. Control, perceived cooling: mixture ([1]; second compound 5 ppm + DMSO 0.1 ppm): 8; Effect of Mixture vs. Control, perceived cooling: mixture ([1]; second compound 10 ppm + DMSO 1 ppm): 9; Effect of Mixture vs. Control, perceived cooling: mixture ([1]; second compound 30 ppm + DMSO 5 ppm): 9.5; Effect of Mixture vs. Control, perceived cooling: mixture ([1]; second compound 100 ppm + DMSO 10 ppm): 8.7; Effect of Mixture vs. Control, perceived cooling: control ([1]; second compound alone 5 ppm (control for DMSO 0.1 ppm line)): 1.5; Effect of Mixture vs. Control, perceived cooling: control ([1]; second compound alone 10 ppm (control for DMSO 1 ppm line)): 1.3; Effect of Mixture vs. Control, perceived cooling: control ([1]; second compound alone 30 ppm (control for DMSO 5 ppm line)): 1.1; Effect of Mixture vs. Control, perceived cooling: control ([1]; second compound alone 100 ppm (control for DMSO 10 ppm line)): 2; Observed Effect Scaled at 1-10 vs. 2nd Compound Alone, perceived cooling: with DMSO ([2]; scaled 1-10, 2nd compound 0.50% + DMSO 1 ppm): 8.2; Observed Effect Scaled at 1-10 vs. 2nd Compound Alone, perceived cooling: 2nd compound alone ([2]; scaled 1-10, 2nd compound alone 0.50% (line of DMSO 1 ppm)): 1.6 |
| CCC(C)C(C(=O)NC(C)C)C(C)C (centres unmarked) [WS 23 ®] | 9.6 | 9.2 | 2.4 | 2.2 | 9.8 | 9.9 | 2.4 | 2.6 | – |
| CCNC(=O)C1CC(C)CCC1C(C)C (centres unmarked) [WS 3 ®] | 9.3 | 9.0 | 1.5 | 1.6 | 9.1 | 9.0 | 1.7 | 1.6 | – |
| CC1CCC(C(C)C)C(OC(=O)C(C)O)C1 (centres unmarked) [Menthyl lactate] | 8.4 | 8.2 | 1.7 | 2.1 | – | – | – | – | – |
